Reference: patent US12297206B2, “Method for synthesizing furoimidazopyridine compound, polymorphic substance and polymorphic substance of salt” (HANGZHOU HIGHLIGHTLL PHARMACEUTICAL CO., LTD, priority 2019, dated 2025)
Values after ≈ are worked out from the molar mass of the structure shown. Where two headings read alike, the source gives them in different places.

How the values were obtained:
[1] = Stability test 1: short-term solid state stability (high temperature and accelerated conditions); assay type: physicochemical
Experimental: For the open samples, the bottle cap was removed and the bottle neck was coverred with an aluminium-foil paper stabbed with pinholes to avoid cross contamination; for the closed samples, the bottled were coverred and sealed tightly. Samples were taken at weeks 1 and 2, respectively, the samples were diluted with a diluent (methanol/water (1/1) (v/v)), the liquid phase was injected according to the chromatographic conditions in Table 22 and the sample purities were determined.
The sample purities were calculated with an area normalization method.

[2] = Dynamic vapour sorption (DVS) moisture absorption; assay type: physicochemical
[3] = Stability test 1: short-term solid state stability (high temperature and accelerated conditions); assay type: physicochemical; conditions: for Stability study: crystal form: 2 weeks (XRPD, DSC); for Appearance in solid state stability test: within 2 weeks, 60° C. and 40° C./75% RH
[4] = physchem; conditions: 37 °C, thermodynamic from solid
Experimental: The samples were observed 5 minutes later, a quantity of sample or medium was supplemented to obtain mild suspension, and sampling was conduct at 30 minutes, 2 hour, 4 hours and 24 hours, respectively. The samples were centrifuged for 10 minutes at 12000 rpm to obtain the supernatant, the supernatant was diluted appropriately and was subjected to high performance liquid chromatography.
The sample concentration was calculated with an external standard method.

[5] = room temperature and 50° C., days 3, 7 and 14
Experimental: The sample bottles (wrapped with a tin foil paper to protect from light) in a room temperature system were placed on Labquaker rotator for rotating 360°; the samples in a high temperature system were placed in a 50° C. thermostatic shaking incubator and were slurried, part of the suspension samples were taken on days 3, 7 and 14, respectively and were centrifuged, solid residue was collected, the solvents were volatilized at room temperature (20-25° C.) to dryness, the solid was collected.

[6] = good solvents tetrahydrofuran, ethanol, isopropanol, methanol, acetone
Description: If no solid was precipitated, the system was stirred with the bottle opened until solid was precipitated.

[7] = dissolved at about 50° C., transferred to −20° C.
Experimental: The temperature was maintained for 15 minutes, the solution was filterred with a 0.45 μm membrane when hot and was transferred to new sample bottles, the bottled were immediately transferred to a −20° C. refrigerator overnight, the solvent systems wherein solid was precipitated were centrifuged and the solid was collected, the solvent was volatilized at room temperature (20-25° C.) to dryness; the solvent systems wherein no solid was precipitated were placed to a −20° C. refrigerator until a large amount of solids precipitated.

[8] = dissolved at about 50° C., slowly cooled at 6° C./h
Experimental: The temperature was maintained for 15 minutes, the solution was filterred with a 0.45 μm membrane when hot and transferred to new sample bottles, slowly cooled to room temperature at 6° C./h overnight, the sample bottles were placed in a refrigerator (2-8° C.), the solvent systems wherein solid precipitated were centrifuged and the solid was collected, the solvent was volatilized at room temperature (20-25° C.) to dryness; the solvent systems wherein no solid precipitated were placed in a −20° C. refrigerator until a large amount of solids precipitated.

[9] = evaporated at room temperature
[10] = molecular target: T1, TYK2 (Homo sapiens, UniProt P29597); test: TYK2 biochemical test (33P-ATP filter binding kinase assay, Reaction Biology Corp); conditions: kinase reaction 2 hours at room temperature
T1 construct: purchased Reaction Biology Corp, Malvern, PA (contract assay service)
Experimental: A suitable amount of a compound of formula I was weighed for TYK2 biochemical test.
The test was conducted by Reaction Biology Corp, Malvern, PA (Anastassiadis et al. Nat Biotechnol. 2011; 29(11):1039-45). The steps are briefly described as follows.
Basic reaction buffer: 20 mM Hepes (pH 7.5), 10 mM MgCl2, 1 mM EGTA, 0.02% Brij35, 0.02 mg/ml BSA, 0.1 mM Na3VO4, 2 mM DTT and 1% DMSO. The required cofactors were added to each kinase reaction.
1. Preparing the designated substrate in the newly prepared basic reaction buffer;
2. Transferring the required cofactor to the above matrix solution;
3. Transferring the designated kinase to the substrate solution and mixing well slightly;
4. Transferring a compound of formula I in DMSO to a kinase reaction mixture with Acoustic technique (Echo550; nanoliter range), culturing for 20 minutes at room temperature;
5. Introducing ^33P-ATP (specific activity: 10 μCi/μl) to the reaction mixture to trigger a reaction;
6. Culturing at room temperature and conducting a kinase reaction for 2 hours;
7. Plotting the reaction on P81 ion exchange paper;
8. Testing the kinase activity with a filter binding assay.

[11] = molecular target: JAK1 (Homo sapiens, UniProt P23458); conditions: as reported for WO2018067422A1; cited from earlier work
[12] = test system: IL-6-induced STAT3 phosphorylation; conditions: as reported for WO2018067422A1; cited from earlier work
[13] = test system: thrombopoietin-induced STAT3 phosphorylation; conditions: as reported for WO2018067422A1; cited from earlier work
[14] = fasted-state simulated intestinal fluid (FaSSIF), fassif
[15] = fed-state simulated intestinal fluid (FeSSIF), fessif
[16] = simulated gastric fluid (SGF), simulated gastric fluid

T1 sequence (P29597 whole entry): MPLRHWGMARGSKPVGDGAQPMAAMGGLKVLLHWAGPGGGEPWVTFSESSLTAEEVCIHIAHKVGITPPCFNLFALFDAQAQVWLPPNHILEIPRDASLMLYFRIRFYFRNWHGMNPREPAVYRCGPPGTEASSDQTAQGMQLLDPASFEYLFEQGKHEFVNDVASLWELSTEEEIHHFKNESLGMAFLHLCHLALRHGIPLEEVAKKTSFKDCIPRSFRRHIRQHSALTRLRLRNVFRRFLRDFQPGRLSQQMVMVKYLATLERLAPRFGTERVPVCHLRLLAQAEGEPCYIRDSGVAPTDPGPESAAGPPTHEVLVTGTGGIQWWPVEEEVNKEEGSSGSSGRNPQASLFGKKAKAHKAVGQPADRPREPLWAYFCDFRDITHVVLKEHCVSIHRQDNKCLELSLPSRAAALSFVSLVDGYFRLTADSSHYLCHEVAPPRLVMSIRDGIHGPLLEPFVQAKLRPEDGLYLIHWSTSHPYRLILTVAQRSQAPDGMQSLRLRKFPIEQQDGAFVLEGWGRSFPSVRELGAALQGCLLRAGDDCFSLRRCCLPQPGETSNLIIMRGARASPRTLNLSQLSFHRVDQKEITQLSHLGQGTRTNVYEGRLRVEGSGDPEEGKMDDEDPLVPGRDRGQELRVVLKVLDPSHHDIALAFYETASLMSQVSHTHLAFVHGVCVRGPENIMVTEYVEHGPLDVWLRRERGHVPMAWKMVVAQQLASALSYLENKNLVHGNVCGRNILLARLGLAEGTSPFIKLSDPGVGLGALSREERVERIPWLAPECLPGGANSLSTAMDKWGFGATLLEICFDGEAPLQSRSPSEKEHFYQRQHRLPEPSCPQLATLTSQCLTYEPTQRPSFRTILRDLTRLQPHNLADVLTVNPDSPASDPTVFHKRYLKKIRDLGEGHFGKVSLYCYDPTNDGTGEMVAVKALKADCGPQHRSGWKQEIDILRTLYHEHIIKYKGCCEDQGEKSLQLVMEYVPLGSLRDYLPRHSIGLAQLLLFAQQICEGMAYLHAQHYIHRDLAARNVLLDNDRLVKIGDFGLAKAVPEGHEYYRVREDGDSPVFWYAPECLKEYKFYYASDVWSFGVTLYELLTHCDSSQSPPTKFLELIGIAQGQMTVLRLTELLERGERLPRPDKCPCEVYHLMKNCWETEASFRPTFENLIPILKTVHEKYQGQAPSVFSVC
Chain of JAK1 (P23458 whole entry, species assumed): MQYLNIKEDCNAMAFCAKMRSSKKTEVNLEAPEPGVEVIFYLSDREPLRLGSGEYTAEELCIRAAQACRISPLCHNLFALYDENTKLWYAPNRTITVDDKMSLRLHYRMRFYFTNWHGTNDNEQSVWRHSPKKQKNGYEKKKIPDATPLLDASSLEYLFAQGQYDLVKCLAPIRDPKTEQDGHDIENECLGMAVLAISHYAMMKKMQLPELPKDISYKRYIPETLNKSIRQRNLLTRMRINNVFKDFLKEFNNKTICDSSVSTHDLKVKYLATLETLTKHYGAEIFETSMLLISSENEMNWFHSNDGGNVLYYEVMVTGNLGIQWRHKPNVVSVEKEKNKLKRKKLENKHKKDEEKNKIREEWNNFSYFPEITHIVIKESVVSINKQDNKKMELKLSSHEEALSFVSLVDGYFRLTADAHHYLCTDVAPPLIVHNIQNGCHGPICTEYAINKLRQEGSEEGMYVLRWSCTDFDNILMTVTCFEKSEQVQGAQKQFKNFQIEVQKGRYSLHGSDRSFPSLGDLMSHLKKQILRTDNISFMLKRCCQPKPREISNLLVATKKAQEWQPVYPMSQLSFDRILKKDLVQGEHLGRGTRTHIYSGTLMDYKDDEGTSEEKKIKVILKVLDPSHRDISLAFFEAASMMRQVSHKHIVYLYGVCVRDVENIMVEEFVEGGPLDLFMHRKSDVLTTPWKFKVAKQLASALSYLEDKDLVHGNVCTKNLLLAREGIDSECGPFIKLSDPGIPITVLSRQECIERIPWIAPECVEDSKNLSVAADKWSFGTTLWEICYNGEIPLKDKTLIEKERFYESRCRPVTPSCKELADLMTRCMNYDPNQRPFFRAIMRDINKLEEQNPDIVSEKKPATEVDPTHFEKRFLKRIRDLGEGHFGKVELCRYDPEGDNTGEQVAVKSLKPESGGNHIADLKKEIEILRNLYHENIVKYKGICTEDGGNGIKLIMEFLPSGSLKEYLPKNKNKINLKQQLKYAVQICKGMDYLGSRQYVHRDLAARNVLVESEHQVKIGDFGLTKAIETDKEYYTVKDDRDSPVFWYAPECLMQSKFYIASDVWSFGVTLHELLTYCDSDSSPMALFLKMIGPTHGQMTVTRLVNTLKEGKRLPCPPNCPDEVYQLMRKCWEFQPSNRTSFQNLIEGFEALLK

Cc1nc2cnc3ccoc3c2n1[C@H]1CC[C@H](CC#N)OC1
Stability study (purity) ([1]; 0 day): 99.80 Area % | Stability study (purity) ([1]; 40° C./75% RH, open, 1 week): 99.82 Area % | Stability study (purity) ([1]; 40° C./75% RH, open, 2 weeks): 99.82 Area % | Stability study (purity) ([1]; 60° C., sealed, 1 week): 99.81 Area % | Stability study (purity) ([1]; 60° C., sealed, 2 weeks): 99.83 Area % | Crystal form after moisture absorption (XRPD before and after the DVS test) [2]: the crystal form changes | Weight gain by moisture absorption (DVS) ([2]; from 0% RH to 95% RH, 25° C.): 13.86% | Stability study: crystal form ([3]; 40° C./75% RH, open): Change | Stability study: crystal form ([3]; 60° C., sealed): Change | Appearance in solid state stability test [3]: didn't change | solubility at 30 min [4, 14]: 2590 µg/mL (≈ 8.74 mM) | solubility at 2 h [4, 14]: 1860 µg/mL (≈ 6.28 mM) | solubility at 4 h [4, 14]: 1810 µg/mL (≈ 6.11 mM) | solubility at 24 h [4, 14]: 1560 µg/mL (≈ 5.26 mM) | solubility at 30 min [4, 15]: 2910 µg/mL (≈ 9.82 mM) | solubility at 2 h [4, 15]: 2200 µg/mL (≈ 7.42 mM) | solubility at 4 h [4, 15]: 2610 µg/mL (≈ 8.81 mM) | solubility at 24 h [4, 15]: 3290 µg/mL (≈ 11.1 mM) | solubility at 30 min [4, 16]: 16400 µg/mL (≈ 55.3 mM) | solubility at 2 h [4, 16]: 17000 µg/mL (≈ 57.2 mM) | solubility at 4 h [4, 16]: 15200 µg/mL (≈ 51.2 mM) | solubility at 24 h [4, 16]: 16400 µg/mL (≈ 55.4 mM) | solubility at 30 min ([4]; water): 1350 µg/mL (≈ 4.56 mM) | solubility at 2 h ([4]; water): 1730 µg/mL (≈ 5.84 mM) | solubility at 4 h ([4]; water): 1490 µg/mL (≈ 5.03 mM) | solubility at 24 h ([4]; water): 1430 µg/mL (≈ 4.83 mM)

Cc1nc2cnc3ccoc3c2n1C1CCC(CC#N)OC1.Cc1nc2cnc3ccoc3c2n1C1CCC(CC#N)OC1.O=C(O)C(O)C(O)C(=O)O (stereo not shown)
Stability study (purity) ([1]; 0 day): 99.22 Area % | Stability study (purity) ([1]; 40° C./75% RH, open, 1 week): 99.31 Area % | Stability study (purity) ([1]; 40° C./75% RH, open, 2 weeks): 99.36 Area % | Stability study (purity) ([1]; 60° C., sealed, 1 week): 99.34 Area % | Stability study (purity) ([1]; 60° C., sealed, 2 weeks): 99.36 Area % | Crystal form after moisture absorption (XRPD before and after the DVS test) [2]: doesn't change | Weight gain by moisture absorption (DVS) ([2]; at a humidity of 80% RH): 1.80% | Weight gain by moisture absorption (DVS) ([2]; from 0% RH to 95% RH, 25° C.): 6.85% | Crystal form after slurrying ([5]; Acetone): Crystal form O | Crystal form after slurrying ([5]; Ethanol): Crystal form O | Crystal form after slurrying ([5]; Ethyl acetate): Crystal form O | Crystal form after slurrying ([5]; Isopropanol): Crystal form O | Crystal form after slurrying ([5]; Methanol): Crystal form O | Crystal form after slurrying ([5]; Methyl tert-butyl ether): Crystal form O | Crystal form after slurrying ([5]; N-heptane): Crystal form O | Crystal form after slurrying ([5]; Tetrahydrofuran): Crystal form O | Crystal form after slurrying ([5]; Toluene): Crystal form O | Product crystal form ([6]; Anti-solvent Ethyl acetate): Crystal form O | Product crystal form ([6]; Anti-solvent Methyl tert-butyl ether): Crystal form O | Product crystal form ([6]; Anti-solvent N-heptane): Crystal form O | Product crystal form ([6]; Anti-solvent Toluene): Crystal form O | Crystal form of precipitated solid ([7]; Ethanol): Crystal form O | Crystal form of precipitated solid ([7]; Isopropanol): Crystal form O | Crystal form of precipitated solid ([7]; Methanol): Crystal form O | Crystal form of precipitated solid ([8]; Ethanol): Crystal form O | Crystal form of precipitated solid ([8]; Isopropanol): Crystal form O | Crystal form of precipitated solid ([9]; Acetone): Crystal form O | Crystal form of precipitated solid ([9]; Ethanol): Crystal form O | Crystal form of precipitated solid ([9]; Isopropanol): Crystal form O | Crystal form of precipitated solid ([9]; Methanol): Crystal form O | Crystal form of precipitated solid ([9]; Tetrahydrofuran): Crystal form O | Stability study: crystal form ([3]; 40° C./75% RH, open): Unchange | Stability study: crystal form ([3]; 60° C., sealed): Unchange | Appearance in solid state stability test [3]: didn't change

Br.Cc1nc2cnc3ccoc3c2n1C1CCC(CC#N)OC1 (stereo not shown)
Crystal form after moisture absorption (XRPD before and after the DVS test) [2]: changed | Weight gain by moisture absorption (DVS) ([2]; from 0% RH to 95% RH, 25° C.): 11.84%

Cc1nc2cnc3ccoc3c2n1[C@H]1CC[C@H](CC#N)OC1 [compound of formula I, 2-[(2R,5S)-5-[2-methylfuro[3,2-b]imidazo[4,5-d]pyridin-1-yl]tetrahydropyran-2-yl] acetonitrile]
IC50 [10]: < 10 nM | JAK1 inhibition [11]: potent and selective JAK1 inhibitor | Inhibition of IL-6-induced STAT3 phosphorylation [12]: selective inhibition | Inhibition of thrombopoietin-induced STAT3 phosphorylation [13]: does not show selective inhibition

Cc1nc2cnc3ccoc3c2n1C1CCC(CC#N)OC1.O=P(O)(O)O (stereo not shown)
Stability study (purity) ([1]; 0 day): 99.34 Area % | Stability study (purity) ([1]; 40° C./75% RH, open, 1 week): 99.33 Area % | Stability study (purity) ([1]; 40° C./75% RH, open, 2 weeks): 99.35 Area % | Stability study (purity) ([1]; 60° C., sealed, 1 week): 99.32 Area % | Stability study (purity) ([1]; 60° C., sealed, 2 weeks): 99.16 Area % | Crystal form after moisture absorption (XRPD before and after the DVS test) [2]: doesn't change | Weight gain by moisture absorption (DVS) ([2]; at 70% RH): 1.95% | Weight gain by moisture absorption (DVS) ([2]; at a humidity of 85% RH): 0.72% | Weight gain by moisture absorption (DVS) ([2]; from 0% RH to 95% RH, 25° C.): 6.5% | Stability study: crystal form ([3]; 40° C./75% RH, open): Unchange | Stability study: crystal form ([3]; 60° C., sealed): Unchange | Appearance in solid state stability test [3]: didn't change

Cc1nc2cnc3ccoc3c2n1C1CCC(CC#N)OC1.O=S(=O)(O)c1ccccc1 (stereo not shown)
Crystal form after moisture absorption (XRPD before and after the DVS test) [2]: doesn't change | Weight gain by moisture absorption (DVS) ([2]; at 70% RH): 0.97% | Weight gain by moisture absorption (DVS) ([2]; at a humidity of 85% RH): 0.54% | Weight gain by moisture absorption (DVS) ([2]; from 0% RH to 95% RH, 25° C.): 4.6%
